US20050175545A1, “Formulation for inhalation comprising a glucocorticoid and a beta 2-adrenoreceptor agonist” (priority 2002, published 2005)

Tests used:
[1] = Pharmacokinetics after intravenous and oral dosing in rats; details: in vivo data in the rat
[2] = tested on: NFκB; assay: NFκB firefly luciferase reporter stimulated with TNFα, transrepression; type: cell-based; details: Homo sapiens, A549, read-out: Transrepression (NFκB) ED50 (nM)
Excerpt: The glucocorticoid receptor (GR) can function in at least two distinct mechanisms, by upregulating gene expression through the direct binding of GR to specific sequences in gene promoters, and by downregulating gene expression that is being driven by other transcription factors (such as NFκB or AP-1) through their direct interaction with GR.
The first cell line contains the firefly luciferase reporter gene under the control of a synthetic promoter that specifically responds to activation of the transcription factor NFκB when stimulated with TNFα. The second cell line contains the renilla luciferase reporter gene under the control of a synthetic promotor that comprises 3 copies of the consensus glucocorticoid response element, and which responds to direct stimulation by glucocorticoids. Simultaneous measurement of transactivation and transrepression was conducted by mixing the two cell lines in a 1:1 ratio in 96 well plate (40,000 cells per well) and growing overnight at 37° C. Test compounds were dissolved in DMSO, and added to the cells at a final DMSO concentration of 0.7%. After incubation for 1 h 0.5 ng/ml TNFα (R&D Systems) was added and after a further 15 hours at 37° C., the levels of firefly and renilla luciferase were measured using the Packard Firelite kit following the manufacturers' directions. Dose response curves were constructed from which EC50 values were determined.

[3] = Pharmacokinetics after intravenous administration in the anaesthetised pig; type: in vivo; details: for clearance (comparison, in words): intravenous 0.1 mg/kg; for pharmacokinetic parameters (comparison, in words): intravenous mixture of the two compounds at 0.1 mg/kg
Excerpt: The clearance of these two glucocorticoids is similar is this experimental pig model.

[4] = Pharmacokinetics after intra-tracheal dry powder dosing in the pig; type: in vivo; details: intra-tracheal 1 mg; lower limits of quantitation 10 (Example 1) and 20 pg/mL (fluticasone propionate)
Method: Serial blood samples were taken for up to 8h following dosing.

[5] = tested on: lung eosinophilia; assay: ovalbumin sensitised Brown Norway rat eosinophilia model; type: in vivo; details: intra-tracheal suspension in saline 30 min prior to ovalbumin challenge
Method: Pharmacological activity in vivo was assessed in an ovalbumin sensitised Brown Norway rat eosinophilia model. This model is designed to mimic allergen induced lung eosinophilia, a major component of lung inflammation in asthma.

[6] = tested on: rat hepatocytes; assay: In vitro metabolism in rat hepatocytes; type: in vitro ADME; details: 17-β carboxylic acid (X) only significant metabolite
[7] = tested on: human hepatocytes; assay: In vitro metabolism in human hepatocytes; type: in vitro ADME; details: 17-β carboxylic acid (X) only significant metabolite

Structure (SMILES): CC1CC2C3CC(F)C4=CC(=O)C=CC4(C)C3(F)C(O)CC2(C)C1(OC(=O)c1ccon1)C(=O)SCF (stereo not drawn) [Example 28, 6α,9α-Difluoro-11β-hydroxy-17α-[(isoxazole-3-carbonyl)oxy]-16α-methyl-3-oxo-androsta-1,4-diene-17β-carbothloic acid S-fluoromethyl ester]
- plasma clearance (in words) [1]: approaching hepatic blood flow

Structure (SMILES): Cc1cc(C(=O)OC2(C(=O)SCF)C(C)CC3C4CC(F)C5=CC(=O)C=CC5(C)C4(F)C(O)CC32C)no1 (stereo not drawn) [Example 24, 6α,9α-Difluoro-11β-hydroxy-16α-methyl-17α-[(5-methylisoxazole-3-carbonyl)oxy]-3-oxo-androsta-1,4-diene-17β-carbothioic acid S-fluoromethyl ester]
- plasma clearance (in words) [1]: approaching hepatic blood flow

Structure (SMILES): C[C@@H]1C[C@H]2[C@@H]3C[C@H](F)C4=CC(=O)C=C[C@]4(C)[C@@]3(F)[C@@H](O)C[C@]2(C)[C@@]1(OC(=O)c1ccco1)C(=O)O [Metabolite (X)]
- EC50 [2]: > 1000 nM

Structure (SMILES): CCC(=O)O[C@]1(C(=O)SCF)[C@H](C)C[C@H]2[C@@H]3C[C@H](F)C4=CC(=O)C=C[C@]4(C)[C@@]3(F)[C@@H](O)C[C@@]21C [Fluticasone propionate, 6α,9α-Difluoro-17α-(1-oxopropoxy)-11β-hydroxy-16α-methyl-3-oxo-androsta-1,4-diene-17β-carbothioic acid S-fluoromethyl ester, reference compound]
- clearance (comparison, in words) [3]: similar
- pharmacokinetic parameters (comparison, in words) [3]: the same
- time after dosing up to which quantifiable in plasma [4]: up to 8 hours

Structure (SMILES): Cc1ccoc1C(=O)OC1(C(=O)SCF)C(C)CC2C3CC(F)C4=CC(=O)C=CC4(C)C3(F)C(O)CC21C (stereo not drawn) [Example 19, 6α,9α-Difluoro-11β-hydroxy-16α-methyl-17α-[(3-methylfuran-2-carbonyl)oxy]-3-oxo-androsta-1,4-diene-17β-carbothioic acid S-fluoromethyl ester]
- plasma clearance (in words) [1]: approaching hepatic blood flow

Structure (SMILES): Cc1cc(C(=O)OC2(C(=O)SCF)C(C)CC3C4CC(F)C5=CC(=O)C=CC5(C)C4(F)C(O)CC32C)on1 (stereo not drawn) [Example 25, 6α,9α-Difluoro-11β-hydroxy-16α-methyl-17α-[(3-methylisoxazole-5-carbonyl)oxy]-3-oxo-androsta-1,4-diene-17β-carbothioic acid S-fluoromethyl ester]
- plasma clearance (in words) [1]: approaching hepatic blood flow

Structure (SMILES): C[C@@H]1CC2C3C[C@H](F)C4=CC(=O)C=C[C@]4(C)[C@@]3(F)[C@@H](O)C[C@]2(C)[C@@]1(OC(=O)c1ccco1)C(=O)SCF (stereo partly drawn) [Example 1, 6α,9α-Difluoro-17α-[(2-furanylcarbonyl)oxy]-11β-hydroxy-16α-methyl-3-oxo-androsta-1,4-diene-17β-carbothioic acid S-fluoromethyl ester]
- plasma clearance (in words) [1]: approaching hepatic blood flow
- clearance (comparison, in words) [3]: similar
- pharmacokinetic parameters (comparison, in words) [3]: the same
- inhibition of lung eosinophilia (dose relation, in words) [5]: dose dependant inhibition
- time after dosing up to which quantifiable in plasma [4]: up to 2 hours
- manner of metabolism [6]: metabolised in an identical manner to fluticasone propionate
- manner of metabolism [7]: metabolised in an identical manner to fluticasone propionate

Structure (SMILES): CC1CC2C3CC(F)C4=CC(=O)C=CC4(C)C3(F)C(O)CC2(C)C1(OC(=O)c1ccsc1)C(=O)SCF (stereo not drawn) [Example 4, 6α,9α-Difluoro-11β-hydroxy-16α-methyl-3-oxo-17α-[(3-thienylcarbonyl)oxy]-androsta-1,4-diene-17β-carbothioic acid S-fluoromethyl ester]
- plasma clearance (in words) [1]: approaching hepatic blood flow
